{"source": "paper PMC3298710", "about": "“^111In-BnDTPA-F3: an Auger electron-emitting radiotherapeutic agent that targets nucleolin” (EJNMMI Research, 2012)", "test_system": "231-H2N cells", "assay": "Clonogenic survival", "assay_type": "cell-based, human", "details": "24 h, amount equivalent to 2 μM 111In-BnDTPA-F3 at highest specific activity, from 100 ± 5%", "description": "[…] After incubation at 37°C for 24 h, 2 × 10^3 cells were seeded per well in a 6-well plate, and 2 mL of fresh growth medium was added. After 7 to 14 days, cell colonies were stained with methylene blue (2% methylene blue in water/methanol 1:1) and counted. Combination indices (CI) of ^111In with BnDTPA-F3 were determined as described by Edelman et al.. A CI < 0.9 indicates superadditivity."}
{"smiles": "[Cl][111In]([Cl])[Cl]", "note": "[111In chloride]", "values": [{"measurement": "clonogenic survival, equivalent amount of 111In chloride", "value": "46 ± 4", "unit": "%"}]}
